Assay results published in ChEMBL document CHEMBL4627293, “Synthesis and in vitro activity of asymmetric indole-based bisamidine compounds against Gram-positive and Gram-negative pathogens” (2020).
In brackets after ≈: the same amount, converted by molar mass.

Assays:
Type in all cases: functional
Staphylococcus aureus [1] = test: Antimicrobial activity against methicillin-sensitive Staphylococcus aureus ATCC 29213
Staphylococcus aureus [2] = test: Antimicrobial activity against methicillin- resistant Staphylococcus aureus ATCC 33591
Enterococcus faecalis [3] = test: Antimicrobial activity against Vancomycin-sensitive Enterococcus faecalis ATCC 29212
Enterococcus faecalis [4] = test: Antimicrobial activity against Vancomycin-resistant Enterococcus faecalis ATCC 51299
Escherichia coli [5] = test: Antimicrobial activity against Escherichia coli ATCC 25922
Klebsiella pneumoniae [6] = test: Antimicrobial activity against ESBL-producing Klebsiella pneumoniae ATCC 700603
Klebsiella pneumoniae [7] = test: Antimicrobial activity against NDM-1 producing Klebsiella pneumoniae ATCC BAA-2146
Pseudomonas aeruginosa [8] = test: Antimicrobial activity against Pseudomonas aeruginosa ATCC 27853
Citrobacter freundii [9] = test: Antimicrobial activity against Citrobacter freundii ATCC 43864
Providencia rettgeri = test: Antimicrobial activity against Providencia rettgeri ATCC 31052
Proteus vulgaris = test: Antimicrobial activity against Proteus vulgaris ATCC 29905
[10] = tested on: Staphylococcus epidermidis; test: Antimicrobial activity against methicillin-susceptible Staphylococcus epidermidis ATCC 12228
Enterococcus faecium = test: Antimicrobial activity against vancomycin-resistant Enterococcus faecium ATCC 700221
Klebsiella pneumoniae [11] = test: Antimicrobial activity against Klebsiella pneumoniae 7
[12] = tested on: Acinetobacter calcoaceticus; test: Antimicrobial activity against Acinetobacter calcoaceticus ATCC 19606
Escherichia coli [13] = test: Potency index, ratio of MIC for 2-[4-[4-[6-(N,N-dimethylcarbamimidoyl)-1H-indol-2-yl]phenoxy]phenyl]-N,N-dimethyl-1H-indole-6-carboxamidine to MIC for test compound against Escherichia coli ATCC 25922
Klebsiella pneumoniae [14] = test: Potency index, ratio of MIC for 2-[4-[4-[6-(N,N-dimethylcarbamimidoyl)-1H-indol-2-yl]phenoxy]phenyl]-N,N-dimethyl-1H-indole-6-carboxamidine to MIC for test compound against ESBL-producing Klebsiella pneumoniae ATCC 700603
Klebsiella pneumoniae [15] = test: Potency index, ratio of MIC for 2-[4-[4-[6-(N,N-dimethylcarbamimidoyl)-1H-indol-2-yl]phenoxy]phenyl]-N,N-dimethyl-1H-indole-6-carboxamidine to MIC for test compound against Klebsiella pneumoniae 7
Klebsiella pneumoniae [16] = test: Potency index, ratio of MIC for 2-[4-[4-[6-(N,N-dimethylcarbamimidoyl)-1H-indol-2-yl]phenoxy]phenyl]-N,N-dimethyl-1H-indole-6-carboxamidine to MIC for test compound against NDM-1 producing Klebsiella pneumoniae ATCC BAA-2146
Pseudomonas aeruginosa [17] = test: Potency index, ratio of MIC for 2-[4-[4-[6-(N,N-dimethylcarbamimidoyl)-1H-indol-2-yl]phenoxy]phenyl]-N,N-dimethyl-1H-indole-6-carboxamidine to MIC for test compound against Pseudomonas aeruginosa ATCC 27853
Citrobacter freundii [18] = test: Potency index, ratio of MIC for 2-[4-[4-[6-(N,N-dimethylcarbamimidoyl)-1H-indol-2-yl]phenoxy]phenyl]-N,N-dimethyl-1H-indole-6-carboxamidine to MIC for test compound against Citrobacter freundii ATCC 43864
Klebsiella pneumoniae [19] = test: Potency index, ratio of MIC for Levofloxacin to MIC for test compound against NDM-1 producing Klebsiella pneumoniae ATCC BAA-2146
Klebsiella aerogenes = test: Antimicrobial activity against Enterobacter aerogenes ATCC 45102

In the case of CN(C)C(=N)c1ccc2cc(-c3ccc(Oc4ccc(-c5cc6ccc(C(=N)N(C)C)cc6[nH]5)nc4)cc3)[nH]c2c1, the MIC (Staphylococcus aureus [1]) is reported as 0.125 µg/mL (≈ 0.231 µM), the MIC (Staphylococcus aureus [2]) is reported as 0.125 µg/mL (≈ 0.231 µM) and the MIC (Enterococcus faecalis [3]) is reported as 0.5 µg/mL (≈ 0.923 µM). It also gave an MIC (Enterococcus faecalis [4]) of 0.5 µg/mL (≈ 0.923 µM), an MIC (Escherichia coli [5]) of 1 µg/mL (≈ 1.85 µM) and an MIC (Klebsiella pneumoniae [6]) of 4 µg/mL (≈ 7.38 µM). For the same compound, the MIC (Klebsiella pneumoniae [7]) was 2 µg/mL (≈ 3.69 µM), the MIC (Pseudomonas aeruginosa [8]) was 32 µg/mL (≈ 59.1 µM) and the MIC (Citrobacter freundii [9]) was 2 µg/mL (≈ 3.69 µM). For the same compound, the MIC (Providencia rettgeri) was 4 µg/mL (≈ 7.38 µM), the MIC (Proteus vulgaris) was 4 µg/mL (≈ 7.38 µM) and the MIC [10] was 0.25 µg/mL (≈ 0.462 µM). For the same compound, the MIC (Enterococcus faecium) was 1 µg/mL (≈ 1.85 µM), the MIC (Klebsiella pneumoniae [11]) was 2 µg/mL (≈ 3.69 µM) and the MIC [12] was 64 µg/mL (≈ 118 µM). The Ratio (Escherichia coli [13]) was 4, the Ratio (Klebsiella pneumoniae [14]) was 4 and the Ratio (Klebsiella pneumoniae [15]) was 4. For the same compound, the Ratio (Klebsiella pneumoniae [16]) was 4, the Ratio (Pseudomonas aeruginosa [17]) was 4 and the Ratio (Citrobacter freundii [18]) was 4.
COc1cc(Oc2ccc(-c3cc4ccc(C(=N)N(C)C)cc4[nH]3)cc2)ccc1-c1cc2ccc(C(=N)N(C)C)cc2[nH]1 was tested, and the MIC (Staphylococcus aureus [1]) was 0.25 µg/mL (≈ 0.438 µM), the MIC (Staphylococcus aureus [2]) was 0.25 µg/mL (≈ 0.438 µM) and the MIC (Enterococcus faecalis [3]) was 0.5 µg/mL (≈ 0.876 µM). The MIC (Enterococcus faecalis [4]) was 0.5 µg/mL (≈ 0.876 µM), the MIC (Escherichia coli [5]) was 2 µg/mL (≈ 3.5 µM) and the MIC (Klebsiella pneumoniae [6]) was 8 µg/mL (≈ 14 µM). It also gave an MIC (Klebsiella pneumoniae [7]) of 8 µg/mL (≈ 14 µM), an MIC (Pseudomonas aeruginosa [8]) of 128 µg/mL (≈ 224 µM) and an MIC (Citrobacter freundii [9]) of 4 µg/mL (≈ 7.01 µM). It also gave an MIC (Providencia rettgeri) of 8 µg/mL (≈ 14 µM), an MIC (Proteus vulgaris) of 8 µg/mL (≈ 14 µM) and an MIC [10] of 0.25 µg/mL (≈ 0.438 µM). The MIC (Enterococcus faecium) was 1 µg/mL (≈ 1.75 µM), the MIC (Klebsiella pneumoniae [11]) was 8 µg/mL (≈ 14 µM) and the MIC [12] was 64 µg/mL (≈ 112 µM). For the same compound, the Ratio (Klebsiella pneumoniae [19]) was 16.
In the case of C/N=C(\NC)c1ccc2cc(-c3ccc(Oc4ccc(-c5cc6ccc(/C(=N\C)NC)cc6[nH]5)cc4)cc3)[nH]c2c1, the MIC (Staphylococcus aureus [1]) is reported as 8 µg/mL (≈ 14.8 µM), the MIC (Staphylococcus aureus [2]) is reported as 8 µg/mL (≈ 14.8 µM) and the MIC (Enterococcus faecalis [3]) is reported as 8 µg/mL (≈ 14.8 µM). It also gave an MIC (Enterococcus faecalis [4]) of 16 µg/mL (≈ 29.6 µM), an MIC (Escherichia coli [5]) of 64 µg/mL (≈ 118 µM) and an MIC (Klebsiella pneumoniae [6]) greater than 128 µg/mL. The MIC (Klebsiella pneumoniae [7]) was 128 µg/mL (≈ 237 µM), the MIC (Pseudomonas aeruginosa [8]) was greater than 128 µg/mL and the MIC (Klebsiella aerogenes) was greater than 128 µg/mL. For the same compound, the MIC (Citrobacter freundii [9]) was greater than 128 µg/mL, the MIC (Providencia rettgeri) was greater than 128 µg/mL and the MIC (Proteus vulgaris) was greater than 128 µg/mL.
C[C@H]1COc2c(N3CCN(C)CC3)c(F)cc3c(=O)c(C(=O)O)cn1c23.C[C@H]1COc2c(N3CCN(C)CC3)c(F)cc3c(=O)c(C(=O)O)cn1c23.O [LEVOFLOXACIN] showed an MIC (Staphylococcus aureus [1]) of 0.25 µg/mL, an MIC (Staphylococcus aureus [2]) of 0.25 µg/mL and an MIC (Enterococcus faecalis [3]) of 1 µg/mL. It also gave an MIC (Enterococcus faecalis [4]) of 1 µg/mL, an MIC (Klebsiella pneumoniae [6]) of 2 µg/mL and an MIC (Klebsiella pneumoniae [7]) greater than 128 µg/mL. It also gave an MIC (Klebsiella aerogenes) of 0.25 µg/mL, an MIC (Citrobacter freundii [9]) of 0.03 µg/mL and an MIC (Providencia rettgeri) of 0.125 µg/mL. For the same compound, the MIC (Proteus vulgaris) was 0.125 µg/mL, the MIC [10] was 0.25 µg/mL and the MIC (Enterococcus faecium) was 32 µg/mL. For the same compound, the MIC (Klebsiella pneumoniae [11]) was 16 µg/mL and the MIC [12] was 0.25 µg/mL.
